32 substances from PMC11339918, “Extracellular Domain of IL-10 Receptor Chain-2 (IL-10R2) and Its Arginine-Containing Peptides Are Susceptible Substrates for Human Prostate Kallikrein-2 (KLK2)” (Biochemistry, 2024) can be followed below.

Entries after “also recorded” stand apart in the source; their conditions may differ. *: point of attachment. EDDnp = O=[N+]([O-])c1ccc(NCCN*)c([N+](=O)[O-])c1

The target of the first test is T1, Recombinant KLK2 (Homo sapiens, UniProt P20151).
T1 construct: made in house; host or cells: baculovirus-insect cell line system
T1 sequence (P20151 25-261): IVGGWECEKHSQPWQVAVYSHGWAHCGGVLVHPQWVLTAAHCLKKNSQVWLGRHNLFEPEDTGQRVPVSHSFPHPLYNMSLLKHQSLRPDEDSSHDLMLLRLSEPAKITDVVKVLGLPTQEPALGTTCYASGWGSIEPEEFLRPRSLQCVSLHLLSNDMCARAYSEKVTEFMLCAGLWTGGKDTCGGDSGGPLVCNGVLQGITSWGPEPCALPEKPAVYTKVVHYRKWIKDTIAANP
Put plainly: Hydrolysis of FRET peptides by recombinant KLK2 (kinetic parameters). To be noted: FRET peptides derived from the IL-10R2 ectodomain. In kind it is biochemical. From the text:
Obtained from a baculovirus-insect cell line system, purified, and activated as previously reported,[14] MUGB (4-methylumbelliferyl p-guanidino benzoate hydrochloride) was used for the spectrofluorimetric determination of molar concentrations of active KLK2.[15] KLK3 was obtained and assayed as previously reported.[3]
All of the FRET peptides were obtained by solid-phase peptide synthesis. The purity of FRET peptides to 95% or higher was obtained by semipreparative HPLC on a C18 reversed-phase column and used as protease substrates, as previously reported.[5] Details about the purification and quality of the FRET peptides are provided in the Supporting Information. The enzymatic kinetic measurements were all performed with FRET peptides as previously described.[5]
Five series of FRET peptides derived from Abz-KLRSSK-Q-EDDnp were assayed with KLK2 in 20 mM Tris–HCl, pH 8.0, and 1 M sodium citrate. […] The specificity of subsites S3, S2, S1’, and S2’ was explored by the FRET peptide series Abz-XLRSSKQ-EDDnp (for S3), Abz-KXRSSKQ-EDDnp (for S2), Abz-KLRXSKQ-EDDnp (for S1’), and Abz-KLRSXKQ-EDDnp (for S2’). All of them were hydrolyzed only at R–S or R–X peptide bonds, and the kinetic parameters for their hydrolysis by KLK2 are listed in Table 1.
On to “Abz-LPDRNK-Q-EDDnp [FRET peptide derived from the IL-10R2 ectodomain, ^195LPDRN^200K]”, for which the “hydrolysis by KLK2 (in words)” value is given as “resistant to KLK2; also recorded: no hydrolysis”.

With “Abz-LSKYGD-Q-EDDnp [FRET peptide derived from the IL-10R2 ectodomain, ^79LSKYG^84D]”, the “hydrolysis by KLK2 (in words)” value is listed as “resistant to hydrolysis; also recorded: no hydrolysis”.

The same test, now with this note: Table 3, FRET peptides derived from the IL-10R2 ectodomain.
Turning to “Abz-SYRIFQ-Q-EDDnp [FRET peptide derived from the IL-10R2 ectodomain, ^58SYRI^62F]”, the Km amounted to 0.95 µM, the kcat was 7.3 s^–1 and the kcat/Km came to 7684 mM s–1.

In the case of “Abz-TLRVRAE-Q-EDDnp [FRET peptide derived from the IL-10R2 ectodomain, ^86TLRVRA^92E]”, the Michaelis constant (Km) turned out to be 1.34 µM, the kcat was found to be 2.47 s^–1 and the kcat/Km was found to be 1843 mM s–1.

Still in this test, the particulars now being: pH 8.0, 20 mM Tris–HCl, 1 M sodium citrate, 37 °C, KLK2 1.6 nM; three enzymatic reactions, standard errors 5% or less.
With “Abz-KXRSSKQ-EDDnp, X = Y: FRET peptide, S2 series, X = Y [Abz-KXRSSKQ-EDDnp, X = Y] (Abz-KYRSSKQ-EDDnp)”, the Km is 5.6 µM, the kcat was 12.8 s^–1 and the kcat/Km is listed as 2304 s^–1 mM^–1.

In the case of “Abz-XLRSSKQ-EDDnp, X = E: FRET peptide, S3 series, X = E (Abz-ELRSSKQ-EDDnp)”, the Km was 7.6 µM, the kcat worked out at 7.4 s^–1 and the kcat/Km is listed as 974 s^–1 mM^–1.

Regarding “Abz-XLRSSKQ-EDDnp, X = F: FRET peptide, S3 series, X = F [Abz-XLRSSKQ-EDDnp, X = F] (Abz-FLRSSKQ-EDDnp)”, the Km came to 6.6 µM, the kcat stood at 9.6 s^–1 and the kcat/Km is listed as 1455 s^–1 mM^–1.

Turning to “Abz-XLRSSKQ-EDDnp, X = H: FRET peptide, S3 series, X = H (N-terminal Abz, C-terminal EDDnp; X = H)”, the Michaelis constant (Km) was 4.2 µM, the kcat was found to be 17.2 s^–1 and the kcat/Km is listed as 4095 s^–1 mM^–1.

Take “Abz-XLRSSKQ-EDDnp, X = N: FRET peptide, S3 series, X = N (Abz-NLRSSKQ-EDDnp)”: the Michaelis-Menten constant (Km) came out at 7.8 µM, the kcat is recorded as 26.7 s^–1 and the kcat/Km is 3423 s^–1 mM^–1.

Turning to “Abz-XLRSSKQ-EDDnp, X = Q: FRET peptide, S3 series, X = Q (Abz-QLRSSKQ-EDDnp)”, the Km was determined as 5.9 µM, the kcat is given as 25.7 s^–1 and the kcat/Km was 4356 s^–1 mM^–1.

For “Abz-XLRSSKQ-EDDnp, X = R: FRET peptide, S3 series, X = R (Abz-RLRSSKQ-EDDnp)”, the Km was 3.9 µM, the kcat is reported as 22.3 s^–1 and the kcat/Km was determined as 5718 s^–1 mM^–1.

With “Abz-XLRSSKQ-EDDnp, X = S: FRET peptide, S3 series, X = S (Abz-SLRSSKQ-EDDnp)”, the Michaelis constant (Km) worked out at 3 µM, the kcat worked out at 29.8 s^–1 and the kcat/Km is 9933 s^–1 mM^–1.

Consider “Abz-XLRSSKQ-EDDnp, X = V: FRET peptide, S3 series, X = V [Abz-XLRSSKQ-EDDnp, X = V] (Abz-VLRSSKQ-EDDnp)”, for which the Michaelis-Menten constant (Km) is 4.7 µM, the kcat was determined as 17.9 s^–1 and the kcat/Km was 3808 s^–1 mM^–1.

Another test concerns KLK3. As to the kind of experiment: Hydrolysis by KLK3 of IL-10R2-derived FRET peptides containing F or Y. In kind it is biochemical, human. The settings on record: 2 nM KLK3, 20 mM Tris-HCl, 1 mM EDTA, 1.5 M sodium citrate, pH 7.8, 37 °C. An excerpt: Obtained from a baculovirus-insect cell line system, purified, and activated as previously reported,[14] MUGB (4-methylumbelliferyl p-guanidino benzoate hydrochloride) was used for the spectrofluorimetric determination of molar concentrations of active KLK2.[15] KLK3 was obtained and assayed as previously reported.[3] […]
FRET Peptides with F FRET Peptides with Y
Abz-MNSVNFKNIL-Q-E DD np Abz-FTAQYLSYR-Q-EDD np
Abz-WESPAFAKGN-Q-EDD np Abz – AQYL SYRIF-Q-EDDnp
Abz-KGNLTFT AQY-Q-EDDnp Abz-SSLSKYGDHT-Q-EDD np
Abz-LSYRIFQDKA-Q-EDD np Abz-KIENEYET WT-Q-EDDnp
Abz-LTEADFSSLS-Q-EDD np Abz-TMKNVYNSWT-Q-ED Dnp
Abz-RVRAEFADEH-Q-EDDnp Abz-NSWTYNVQ-Q-EDDnp
Abz-HSDWVNITFAPVD-Q-EDDnp Abz-NVQYWKNG-Q-EDDnp
Abz-SLHMRFL AP K-Q-EDD np Abz-QITPQYDFEV-Q-EDD np
Abz-GTDEKFQ IT P-Q-EDD np Abz – EPWTTYAVQR-Q-EDD np
Conditions of reactions: 2 nM KLK3, 20 mM Tris -HCl, 1 mM EDTA, 1.5 M sodium citrate, pH 7.8, at 37 °C.
The sequence o f FRET peptide with F or Y in the middle of the sequence can be identiﬁed in the IL-
10R2 ectodomain sequence around F or Y, as shown b e l o w. Cysteines were substituted by Alanine (A)
1 MAWSLGSWLGGCLLVSALGMVPPPENVRMNSVNFKNILQWESPAFAKGNLTFTAQYLSYR.
61 IFQDKCMNTTLTECDFSSLSKYGDHTLRVRAEFADEHSDWVNITFCPVDDTIIGPPGMQV.
121 EVL ADSLHMR FL APKIENEY ET W TMKNVYN SWTYNVQYWK NGTDEKFQIT PQYDFEVLRN.
181 LEPW TTYCVQ VRGF LPDRNK AGEWSEPVCE QTTHDETVPS.
Consider “Abz – AQYL SYRIF-Q-EDDnp [Abz-AQYLSYRIF-Q-EDDnp, FRET peptide with Y derived from IL-10R2 ectodomain]”, for which the “hydrolysis by KLK3 (in words)” value is reported as “resistant to hydrolysis by KLK3”.

On to “Abz – EPWTTYAVQR-Q-EDD np [Abz-EPWTTYAVQR-Q-EDDnp, FRET peptide with Y derived from IL-10R2 ectodomain]”, for which the “hydrolysis by KLK3 (in words)” value is reported as “resistant to hydrolysis by KLK3”.

In the case of “Abz-FTAQYLSYR-Q-EDD np [Abz-FTAQYLSYR-Q-EDDnp, FRET peptide with Y derived from IL-10R2 ectodomain]”, the “hydrolysis by KLK3 (in words)” value is “resistant to hydrolysis by KLK3”.

Consider “Abz-GTDEKFQ IT P-Q-EDD np [Abz-GTDEKFQITP-Q-EDDnp, FRET peptide with F derived from IL-10R2 ectodomain]”, for which the “hydrolysis by KLK3 (in words)” value is reported as “resistant to hydrolysis by KLK3”.

On to “Abz-HSDWVNITFAPVD-Q-EDDnp [FRET peptide with F derived from IL-10R2 ectodomain]”, for which the “hydrolysis by KLK3 (in words)” value is recorded as “resistant to hydrolysis by KLK3”.

Take “Abz-KGNLTFT AQY-Q-EDDnp [Abz-KGNLTFTAQY-Q-EDDnp, FRET peptide with F derived from IL-10R2 ectodomain]”: the “hydrolysis by KLK3 (in words)” value is listed as “resistant to hydrolysis by KLK3”.

For “Abz-KIENEYET WT-Q-EDDnp [Abz-KIENEYETWT-Q-EDDnp, FRET peptide with Y derived from IL-10R2 ectodomain]”, the “hydrolysis by KLK3 (in words)” value was “resistant to hydrolysis by KLK3”.

With “Abz-LSYRIFQDKA-Q-EDD np [Abz-LSYRIFQDKA-Q-EDDnp, FRET peptide with F derived from IL-10R2 ectodomain]”, the “hydrolysis by KLK3 (in words)” value was “resistant to hydrolysis by KLK3”.

As to “Abz-LTEADFSSLS-Q-EDD np [Abz-LTEADFSSLS-Q-EDDnp, FRET peptide with F derived from IL-10R2 ectodomain]”, the “hydrolysis by KLK3 (in words)” value is reported as “resistant to hydrolysis by KLK3”.

On to “Abz-MNSVNFKNIL-Q-E DD np [Abz-MNSVNFKNIL-Q-EDDnp, FRET peptide with F derived from IL-10R2 ectodomain]”, for which the “hydrolysis by KLK3 (in words)” value is “resistant to hydrolysis by KLK3”.

Turning to “Abz-NSWTYNVQ-Q-EDDnp [FRET peptide with Y derived from IL-10R2 ectodomain]”, the “hydrolysis by KLK3 (in words)” value is given as “resistant to hydrolysis by KLK3”.

“Abz-NVQYWKNG-Q-EDDnp [FRET peptide with Y derived from IL-10R2 ectodomain]”: the “hydrolysis by KLK3 (in words)” value is on record as “resistant to hydrolysis by KLK3”.

On to “Abz-QITPQYDFEV-Q-EDD np [Abz-QITPQYDFEV-Q-EDDnp, FRET peptide with Y derived from IL-10R2 ectodomain]”, for which the “hydrolysis by KLK3 (in words)” value was “resistant to hydrolysis by KLK3”.

On to “Abz-RVRAEFADEH-Q-EDDnp [FRET peptide with F derived from IL-10R2 ectodomain]”, for which the “hydrolysis by KLK3 (in words)” value is “resistant to hydrolysis by KLK3”.

For “Abz-SLHMRFL AP K-Q-EDD np [Abz-SLHMRFLAPK-Q-EDDnp, FRET peptide with F derived from IL-10R2 ectodomain]”, the “hydrolysis by KLK3 (in words)” value is “resistant to hydrolysis by KLK3”.

With “Abz-SSLSKYGDHT-Q-EDD np [Abz-SSLSKYGDHT-Q-EDDnp, FRET peptide with Y derived from IL-10R2 ectodomain]”, the “hydrolysis by KLK3 (in words)” value is “resistant to hydrolysis by KLK3”.

Take “Abz-T P QYDFEVLR-Q-EDDnp [Abz-TPQYDFEVLR-Q-EDDnp, FRET peptide with F derived from IL-10R2 ectodomain]”: the “hydrolysis by KLK3 (in words)” value was “resistant to hydrolysis by KLK3”.

On to “Abz-TMKNVYNSWT-Q-ED Dnp [Abz-TMKNVYNSWT-Q-EDDnp, FRET peptide with Y derived from IL-10R2 ectodomain]”, for which the “hydrolysis by KLK3 (in words)” value is “resistant to hydrolysis by KLK3”.

Consider “Abz-VQVRGFLPDR-Q-EDD np [Abz-VQVRGFLPDR-Q-EDDnp, FRET peptide with F derived from IL-10R2 ectodomain]”, for which the “hydrolysis by KLK3 (in words)” value is reported as “resistant to hydrolysis by KLK3”.
